Measurements taken from ChEMBL document CHEMBL3745711, “Discovery of potent and orally bioavailable inhibitors of Human Uric Acid Transporter 1 (hURAT1) and binding mode prediction using homology model” (Bioorg Med Chem Lett, 2016).
Blank lines part the entries; values can stand above or below the compound they belong to.

Tests used:
[1] = molecular target: T1, Solute carrier family 22 member 12 (Homo sapiens, UniProt Q96S37); test: Inhibition of human URAT1 expressed in HEK293 cells assessed as [14C]uric acid uptake after 12 mins by scintillation counter; type: cell-based
T1 sequence (Q96S37 whole entry): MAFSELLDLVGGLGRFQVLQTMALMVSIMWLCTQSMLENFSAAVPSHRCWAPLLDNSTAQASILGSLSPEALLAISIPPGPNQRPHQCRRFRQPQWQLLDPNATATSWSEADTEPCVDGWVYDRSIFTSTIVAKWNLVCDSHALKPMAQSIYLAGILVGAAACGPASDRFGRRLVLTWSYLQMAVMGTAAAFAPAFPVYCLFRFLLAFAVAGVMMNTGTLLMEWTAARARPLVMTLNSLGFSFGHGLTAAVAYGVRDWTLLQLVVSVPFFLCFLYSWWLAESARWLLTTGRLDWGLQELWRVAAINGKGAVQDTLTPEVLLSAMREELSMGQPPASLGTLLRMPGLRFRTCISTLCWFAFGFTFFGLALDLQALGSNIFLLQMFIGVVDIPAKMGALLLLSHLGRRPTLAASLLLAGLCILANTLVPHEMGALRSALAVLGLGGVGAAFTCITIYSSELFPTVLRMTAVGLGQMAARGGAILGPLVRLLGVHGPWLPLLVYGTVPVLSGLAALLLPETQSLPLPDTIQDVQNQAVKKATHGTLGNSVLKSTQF

[2] = Intrinsic clearance in rat liver microsomes; type: ADME; settings: read-out: CLH
[3] = Half life in rat liver microsomes; type: ADME
[4] = Intrinsic clearance in monkey liver microsomes; type: ADME, Macaca mulatta; settings: rhesus monkey, read-out: CLH
[5] = Half life in monkey liver microsomes; type: ADME, Macaca mulatta; settings: rhesus monkey
[6] = Intrinsic clearance in human liver microsomes; type: ADME; settings: read-out: CLH
[7] = Half life in human liver microsomes; type: ADME
[8] = Plasma protein binding in human; type: ADME, cell-free; settings: read-out: PPB (converted)
[9] = Tmax in Sprague-Dawley rat at 3 mg/kg, po by LC-MS/MS analysis; type: ADME, organism-based; settings: in vivo
[10] = Cmax in Sprague-Dawley rat at 3 mg/kg, po by LC-MS/MS analysis; type: ADME, organism-based; set-up: dose 3 mg/kg, route oral; settings: in vivo
[11] = AUC (0 to t) in Sprague-Dawley rat at 3 mg/kg, po by LC-MS/MS analysis; type: ADME, organism-based; settings: in vivo
[12] = Mean residence time in Sprague-Dawley rat at 3 mg/kg, po by LC-MS/MS analysis; type: ADME, organism-based; settings: in vivo
[13] = Half life in Sprague-Dawley rat at 3 mg/kg, po by LC-MS/MS analysis; type: ADME, organism-based; settings: in vivo
[14] = Clearance in Sprague-Dawley rat at 3 mg/kg, po by LC-MS/MS analysis; type: ADME, organism-based; settings: in vivo
[15] = Apparent volume of distribution in Sprague-Dawley rat at 3 mg/kg, po by LC-MS/MS analysis; type: ADME, organism-based; settings: in vivo, read-out: Vz/F
Rattus norvegicus [16] = test: Apparent volume of distribution in Sprague-Dawley rat at 3 mg/kg, iv by LC-MS/MS analysis; type: ADME, organism-based; settings: in vivo
[17] = Tmax in beagle dog at 5 mg/kg, po by LC-MS/MS analysis; type: ADME, organism-based, Canis lupus familiaris; settings: in vivo
[18] = Cmax in beagle dog at 5 mg/kg, po by LC-MS/MS analysis; type: ADME, organism-based, Canis lupus familiaris; set-up: dose 5 mg/kg, route oral; settings: in vivo
Canis familiaris [19] = test: AUC (0 to t) in beagle dog at 5 mg/kg, po by LC-MS/MS analysis; type: ADME, organism-based, Canis lupus familiaris; settings: in vivo
[20] = Mean residence time in beagle dog at 5 mg/kg, po by LC-MS/MS analysis; type: ADME, organism-based, Canis lupus familiaris; settings: in vivo
Canis familiaris [21] = test: Apparent volume of distribution in beagle dog at 5 mg/kg, po by LC-MS/MS analysis; type: ADME, organism-based, Canis lupus familiaris; settings: in vivo
[22] = Bioavailability in Sprague-Dawley rat at 3 mg/kg, iv by LC-MS/MS analysis; type: ADME, organism-based; settings: in vivo
[23] = Cmax in beagle dog at 1 mg/kg, iv by LC-MS/MS analysis; type: ADME, organism-based, Canis lupus familiaris; set-up: dose 1 mg/kg, route intravenous; settings: in vivo
Canis familiaris [24] = test: AUC (0 to t) in beagle dog at 1 mg/kg, iv by LC-MS/MS analysis; type: ADME, organism-based, Canis lupus familiaris; settings: in vivo
[25] = Mean residence time in beagle dog at 1 mg/kg, iv by LC-MS/MS analysis; type: ADME, organism-based, Canis lupus familiaris; settings: in vivo
Canis familiaris [26] = test: Half life in beagle dog at 1 mg/kg, iv by LC-MS/MS analysis; type: ADME, organism-based, Canis lupus familiaris; settings: in vivo
Canis familiaris [27] = test: Apparent volume of distribution in beagle dog at 1 mg/kg, iv by LC-MS/MS analysis; type: ADME, organism-based, Canis lupus familiaris; settings: in vivo
[28] = Bioavailability in beagle dog at 1 mg/kg, iv by LC-MS/MS analysis; type: ADME, organism-based, Canis lupus familiaris; settings: in vivo
[29] = Half life in Sprague-Dawley rat at 3 mg/kg, iv by LC-MS/MS analysis; type: ADME, organism-based; settings: in vivo
[30] = Tmax in cynomolgus monkey at 10 mg/kg, po by LC-MS/MS analysis; type: ADME, organism-based, Macaca fascicularis; settings: in vivo
[31] = Cmax in cynomolgus monkey at 10 mg/kg, po by LC-MS/MS analysis; type: ADME, organism-based, Macaca fascicularis; set-up: dose 10 mg/kg, route oral; settings: in vivo
[32] = AUC (0 to t) in cynomolgus monkey at 10 mg/kg, po by LC-MS/MS analysis; type: ADME, organism-based, Macaca fascicularis; settings: in vivo
[33] = Mean residence time in cynomolgus monkey at 10 mg/kg, po by LC-MS/MS analysis; type: ADME, organism-based, Macaca fascicularis; settings: in vivo
[34] = Half life in cynomolgus monkey at 10 mg/kg, po by LC-MS/MS analysis; type: ADME, organism-based, Macaca fascicularis; settings: in vivo
[35] = Clearance in cynomolgus monkey at 10 mg/kg, po by LC-MS/MS analysis; type: ADME, organism-based, Macaca fascicularis; settings: in vivo
[36] = Apparent volume of distribution in cynomolgus monkey at 10 mg/kg, po by LC-MS/MS analysis; type: ADME, organism-based, Macaca fascicularis; settings: in vivo, read-out: Vz/F
Canis familiaris [37] = test: Half life in beagle dog at 5 mg/kg, po by LC-MS/MS analysis; type: ADME, organism-based, Canis lupus familiaris; settings: in vivo
Rattus norvegicus [38] = test: Toxicity in Sprague-Dawley rat assessed as no adverse effect at 100 mg/kg once daily for 1 week; type: organism-based; settings: in vivo, 168 h
[39] = Toxicity in Sprague-Dawley rat administered once daily for 1 week; type: organism-based; settings: in vivo
Cynomolgus monkey = test: Decrease in uric acid level in cynomolgus monkey serum administered as single oral dose measured after 24 hrs; type: functional, organism-based; settings: Macaca fascicularis
[40] = Cmax in Sprague-Dawley rat at 3 mg/kg, iv by LC-MS/MS analysis; type: ADME, organism-based; set-up: dose 3 mg/kg, route intravenous; settings: in vivo
[41] = AUC (0 to t) in Sprague-Dawley rat at 3 mg/kg, iv by LC-MS/MS analysis; type: ADME, organism-based; settings: in vivo
[42] = Mean residence time in Sprague-Dawley rat at 3 mg/kg, iv by LC-MS/MS analysis; type: ADME, organism-based; settings: in vivo
[43] = Clearance in Sprague-Dawley rat at 3 mg/kg, iv by LC-MS/MS analysis; type: ADME, organism-based; settings: in vivo

- IC50 [1]: 1260 nM
Structure (SMILES): O=C(O)C1(Sc2ccnc3ccc(CO)cc23)CCC1

- IC50 [1]: > 10000 nM
Structure (SMILES): O=C(O)C1(Sc2nccc3ncccc23)CCC1

- IC50 [1]: > 10000 nM
Structure (SMILES): CC(=O)Nc1ccc2nccc(SC3(C(=O)O)CCC3)c2c1

- IC50 [1]: > 10000 nM
Structure (SMILES): O=C1COc2cccc(SC3(C(=O)O)CCC3)c2N1

- IC50 [1]: 448 nM
- microsomal CLint [2]: 2.1 µL/min/mg
- half-life [3]: 6.88 h
- microsomal CLint [4]: 3 µL/min/mg
- half-life [5]: 4.82 h
- microsomal CLint [6]: 7.2 µL/min/mg
- half-life [7]: 2.02 h
- fraction unbound [8]: 0.002
- Tmax [9]: 0.5 h
- Cmax [10]: 8800 ng/mL
- AUC(0-t) [11]: 20700 ng·h/mL
- MRT [12]: 3.2 h
- half-life [13]: 2.8 h
- CL/F [14]: 2.5 mL/min/kg
- Vd/F [15]: 0.69 L/kg
Structure (SMILES): O=C(O)C1(Sc2ccnc3ccccc23)CCC1

Structure (SMILES): O=C(O)C1(Sc2ccnc3ccc(Br)cc23)CCC1 [SHR-4640]
- Vz/F (Rattus norvegicus [16]): 0.12 L/kg
- Tmax [17]: 0.5 h
- Cmax [18]: 7700 ng/mL
- AUCt (Canis familiaris [19]): 18600 ng·h/mL
- MRT [20]: 5 h
- Vz/F (Canis familiaris [21]): 2.1 L/kg
- bioavailability [22]: 74.8%
- Cmax [23]: 4700 ng/mL
- AUCt (Canis familiaris [24]): 4400 ng·h/mL
- MRT [25]: 3.2 h
- t1/2 (Canis familiaris [26]): 4.7 h
- Vz/F (Canis familiaris [27]): 1.6 L/kg
- bioavailability [28]: 86.1%
- half-life [29]: 4.9 h
- Tmax [30]: 0.5 h
- Cmax [31]: 46900 ng/mL
- AUC(0-t) [32]: 132000 ng·h/mL
- MRT [33]: 6.3 h
- half-life [34]: 7.3 h
- CL/F [35]: 1.3 mL/min/kg
- Vd/F [36]: 0.8 L/kg
- t1/2 (Canis familiaris [37]): 5.2 h
- Activity (Rattus norvegicus [38]): Non-toxic
- MTD at 168 h [39]: 300 mg/kg
- inhibition (Cynomolgus monkey): Dose-dependent effect
- IC50 [1]: 33.7 nM
- microsomal CLint [2]: 4.4 µL/min/mg
- half-life [3]: 3.28 h
- microsomal CLint [4]: 2.6 µL/min/mg
- half-life [5]: 5.8 h
- microsomal CLint [6]: 1.1 µL/min/mg
- half-life [7]: 13.6 h
- fraction unbound [8]: 0.013
- Tmax [9]: 1.2 h
- Cmax [10]: 20500 ng/mL
- AUC(0-t) [11]: 146000 ng·h/mL
- MRT [12]: 6.8 h
- half-life [13]: 4.4 h
- CL/F [14]: 0.39 mL/min/kg
- Vd/F [15]: 0.14 L/kg
- Cmax [40]: 99700 ng/mL
- AUC(0-t) [41]: 193000 ng·h/mL
- MRT [42]: 6 h
- clearance [43]: 0.29 mL/min/kg

- IC50 [1]: 352 nM
Structure (SMILES): O=C(O)C1(Sc2ccnc3ccc(Br)cc23)CC1

- IC50 [1]: > 10000 nM
Structure (SMILES): O=C(Nc1ccc2nccc(SC3(C(=O)O)CCC3)c2c1)C1CC1

- IC50 [1]: > 10000 nM
Structure (SMILES): O=C(O)C1(Sc2ccnc3cccnc23)CCC1

- IC50 [1]: 1930 nM
Structure (SMILES): O=C(O)C1(Sc2ccnc3ccncc23)CCC1

- IC50 [1]: 2760 nM
Structure (SMILES): N#CCCc1ccc2nccc(SC3(C(=O)O)CCC3)c2c1

- IC50 [1]: 333 nM
Structure (SMILES): O=C(O)C1(Sc2ccnc3ccc(-c4ccccc4F)cc23)CCC1

- microsomal CLint [2]: 4.7 µL/min/mg
- half-life [3]: 3.08 h
- microsomal CLint [4]: 4.9 µL/min/mg
- half-life [5]: 3.15 h
- microsomal CLint [6]: 3.3 µL/min/mg
- half-life [7]: 4.62 h
- fraction unbound [8]: 0.001
- Tmax [9]: 1 h
- Cmax [10]: 2700 ng/mL
- AUC(0-t) [11]: 38200 ng·h/mL
- half-life [13]: 8.8 h
- CL/F [14]: 2 mL/min/kg
- Vd/F [15]: 1.2 L/kg
Structure (SMILES): O=C(O)C1(Sc2ccnc3ccc(C(F)(F)F)cc23)CCC1

- IC50 [1]: > 10000 nM
Structure (SMILES): O=C(O)C1(Sc2ccnc3ccc(O)cc23)CCC1

- IC50 [1]: > 10000 nM
Structure (SMILES): O=C(O)C1(Oc2ncnc3ccccc23)CCC1

- IC50 [1]: 1790 nM
Structure (SMILES): Nc1ccc2nccc(SC3(C(=O)O)CCC3)c2c1

- IC50 [1]: 1750 nM
Structure (SMILES): O=C(O)C1(Sc2ccnc3ccc(-c4ccc(C(F)(F)F)cc4)cc23)CCC1

- IC50 [1]: 1890 nM
Structure (SMILES): O=C(O)C1(Sc2ccnc3ccc(OCCO)cc23)CCC1

- IC50 [1]: > 10000 nM
Structure (SMILES): CNC(=O)COc1ccc2nccc(SC3(C(=O)O)CCC3)c2c1

- IC50 [1]: 324 nM
Structure (SMILES): O=C(O)C1(Sc2ccnc3ccc(Br)cc23)CCCC1

- IC50 [1]: > 10000 nM
Structure (SMILES): O=C(O)C1(Sc2ncnc3ccccc23)CCC1

- IC50 [1]: 1190 nM
Structure (SMILES): O=C(O)C1(Sc2ccnc3ccc(-c4cccc(F)c4)cc23)CCC1
